Measured values as given in patent US20260365684A1, “PHYTOSPHINGOSINE-3,4-CYCLICPHOSPHATE COMPOUND AND PHARMACEUTICAL COMPOSITION COMPRISING THE SAME” (AXCESO BIOPHARMA CO., LTD., priority 2022, published 2026).

Tests used:
[1] = system: C57BL/6 mice; experiment: Survival in sepsis induced by cecal ligation and puncture (CLP); format: in vivo, mouse; conditions: 100 ng/mouse (5 μg/kg) at 6 and 16 hours after CLP; FIG. 8
Protocol: C57BL/6 mice aged 7-8 weeks were purchased from Jabio (Suwon, Gyeonggi-do) and sepsis was induced by cecal ligation and puncture (CLP).
Specifically, after anesthesia using 150 mg/kg of ketamine and 17.5 mg/kg of rompun, an abdominal incision of 1-2 cm was made to expose the cecum to induce sepsis. The cecum was ligated with 6-0 silk sutures at the distal end of the ileocecal valve, and a puncture was made with an 18-gauge needle. The perforated cecum was gently squeezed to push out 1-2 cm of feces, and the cecum was then retracted back into the abdominal cavity. The abdomen was then closed and pre-warmed normal saline (2.5 mL/100 g body weight) was injected into the mouse abdominal cavity immediately after the procedure. 6 and 16 hours after CLP treatment, the compound of formula (1a-1) was dissolved in phosphate buffered saline (PBS) and injected intravenously at 100 ng/mouse (5 μg/kg), and survival was examined for 10 days. […] In addition, as a drug-negative control, survival was examined in mice that received only PBS after CLP treatment.
For comparison, we also examined the survival of a control group treated with fingolimod (FTY720), a known S1P modulator, instead of the compound of formula (1a-1) under the same conditions.

[2] = system: SIRT1; conditions: known value; read-out: EC50 as SIRT1 activator; cited from earlier work
[3] = system: tyrosine hydroxylase (TH); experiment: Tyrosine hydroxylase expression in differentiated SH-SY5Y dopaminergic neurons by western blot; format: cell-based, human; conditions: differentiated dopaminergic neurons treated with rotenone (RT); FIG. 6
Protocol: (§1) To analyze the effect on the expression of tyrosine hydroxylase (TH) and α-synuclein as neuron-specific proteins, western blot was performed.
(§2) SH-SY5Y cell line was treated with retinoic acid and 12-O-tetradecanoylphorbol-13-acetate (TPA) to induce differentiation into TH-secreting neurons for 6 days.
(§3) Differentiated dopaminergic neurons were lysed in PRO-PREP (Intronbio), a cell lysis solution containing protease inhibitor cocktail (Gendepot), and electrophoresed in 10% SDS polyacrylamide gels at 20 μg/well. Transfer was performed using PVDF (Merck millipore) as a membrane, and tyrosine hydroxylase antibody, «-synuclein antibody (Cell signaling), and β-actin antibody (Santa Cruz) were used for reaction for more than 2 hours. Protein expression was detected by staining with ECL substrate (Biorad) for development and graphed using the image J program.

[4] = system: α-synuclein; experiment: α-synuclein expression in differentiated SH-SY5Y dopaminergic neurons by western blot; format: cell-based, human; conditions: differentiated dopaminergic neurons treated with rotenone (RT); FIG. 6
Protocol: as §1, §2, §3

With `CCCCCCCCc1ccc(CCC(N)(CO)CO)cc1` [FTY720, fingolimod, reference compound] the survival [1] was “did not improve survival”.

In the case of `C=C(C)[C@H]1Cc2c(ccc3c2O[C@@H]2COc4cc(OC)c(OC)cc4[C@@H]2C3=O)O1` [rotenone, reference compound], the “expression of TH” value [3] is reported as “the expression of TH is decreased” and the “expression of α-synuclein” value [4] is reported as “the expression of α-synuclein is increased”.
